Measured values from US20250002526A1, “PHARMACEUTICAL COMPOSITION HAVING ANTI-CANCER IMMUNOSTIMULATING EFFECT AND/OR IMMUNE CHECKPOINT INHIBITION POTENTIATING EFFECT” (KYUSHU UNIVERSITY, NATIONAL UNIVERSITY CORPORATION, priority 2021, published 2025).
Where a name gives a salt, the structure may show the parent alone. Read-outs that look alike come from different tables or passages of the source.

What was measured:
[1] = tested on: SULT2B1b-mediated CS production in E0771-SULT cells; assay: CS production inhibitory effect in E0771-SULT cells (LC/MS/MS quantification of CS); assay type: cell-based, mouse; details: Mus musculus; for activity at 10 µM / activity at 20 µM: 24 h; for activity at 10 µM: relative to control (100%); for activity at 20 µM: relative to control without compound (100%); for IC50: read-out: IC50 value (CS production)
Procedure: CS in each human cancer tissue sample was quantified by a method described in NPL 2. To monitor the amounts of CS and/or oxysterol generated in E0771, 3LL, EG.7-OVA, and MC38 cells irrespective of the presence or absence of SULT2B1b expression, cells of each type were seeded in a 6-well plate at 5×10^5 cells/well, and the culture supernatant and cell pellet were collected after 24 hours. Subsequently, deuterium-labeled internal standard (IS) compounds (d7-CS [[…]] and d6-25-hydroxycholesterol) were added to fractions of the culture supernatant and cell pellet, each of which was subjected to extraction with 1 mL of extraction solvent (methanol/chloroform/water=5:2:2 [v/v/v]) to extract CS and oxysterol from the culture supernatant or cell pellet.
Each sample was vigorously mixed with a vortex for 1 minute, and then ultrasonicated for 5 minutes. Thereafter, the sample was centrifuged at 16,000×g and 4° C. for 5 minutes, and the supernatant (700 μl) was collected in a clean tube. Into this, 235 μl of chloroform and 155 μl of water were added and mixed, and the resultant was then subjected to vortexing followed by centrifugation to separate into an aqueous layer and an organic layer. Subsequently, 200 μl of the lowermost layer was dried under a nitrogen flow.
The dried sample was dissolved in 50 μl of methanol, and CS and oxysterol therein were quantified by liquid chromatography-tandem mass spectrometry (LC/MS/MS) with a triple quadrupole mass spectrometer (LCMS-8060; Shimadzu Corporation) equipped with an electrospray ionization (ESI) ion source in a multiple reaction monitoring (MRM) mode.
• Column: Inertsil ODS-4 (2.1×150 mm; particle size: 3 μm; GL Sciences Inc.) • Column temperature: 40° C. • Flow rate: 0.3 ml/min • Mobile phase: (A) water/acetonitrile (1:2, v/v) containing 5 mM ammonium acetate (B) Methanol/Isopropanol (1:19, v/v) Containing 5 mM Ammonium Acetate • Gradient curve: 0 min→22 min: (B) 0%→100%, • 22 min→27 min: (B) 100%, • 27 min→27.1 min: (B) 100%→0%, • 27.1 min→30 min: (B) 0% • Injection volume: 5 μl • Mass spectrometry mode: positive and negative ion modes • Electrospray voltage: 4 kV in positive ion mode, −3.5 kV in negative ion mode • Nebulizer gas flow rate: 3.0 L/min • Drying gas flow rate: 10.0 L/min • Desolvation temperature: 250° C. • Heat block temperature: 400° C. • Detector voltage: 2.16 kV • Used were MRM mode and 2 msec of dwell time per channel.
Absolute CS and oxysterol contents were calculated from calibration curves. MRM calibration curves were prepared with chromatographic peak areas for the analytes relative to peak areas for internal standards through three times of analysis for standard solutions.
The CS production effects of test compounds (compounds 1 to 19, 21, 23, 25, and 27 to 32) were evaluated with the mouse breast cancer cell line E0771 expressing SULT2B1b (E0771-SULT cells).
Specifically, as in the above description in experimental procedure (12), E0771-SULT cells were seeded in a 6-well plate at a proportion of 5×10^5 cells/well, and cultured in the presence or absence (control) of each test compound for 24 hours. After culturing, CS generated in E0771-SULT cells was quantified by LC/MS/MS according to the description in experimental procedure (12). The CS production capacity (% activity) of cells cultured in the presence of each test compound was evaluated from the percentage relative to the CS production level (control) (100%) in E0771-SULT cells cultured in the absence of the test compound, and the CS production inhibitory effect of the test compound was evaluated.

[2] = biological target: T1, recombinant human SULT2B1b protein (Homo sapiens, UniProt O00204); assay: SULT assay (in vitro SULT2B1b enzymatic activity measurement); assay type: biochemical; details: for activity at 200 µM: read-out: in vitro SULT2B1b assay % activity at 200 μM
T1 sequence (O00204 1-365): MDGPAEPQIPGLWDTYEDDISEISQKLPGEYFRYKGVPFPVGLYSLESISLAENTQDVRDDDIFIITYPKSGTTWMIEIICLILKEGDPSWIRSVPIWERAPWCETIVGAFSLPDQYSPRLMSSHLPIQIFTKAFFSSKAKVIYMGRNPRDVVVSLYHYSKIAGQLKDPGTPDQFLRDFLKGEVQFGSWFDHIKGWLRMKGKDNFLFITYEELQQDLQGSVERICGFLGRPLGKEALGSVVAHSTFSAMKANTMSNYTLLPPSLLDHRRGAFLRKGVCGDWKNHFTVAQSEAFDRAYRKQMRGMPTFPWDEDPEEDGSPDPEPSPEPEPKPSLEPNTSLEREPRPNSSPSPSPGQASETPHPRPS
Procedure: For screening for a SULT2B1b inhibitor, enzymatic activity measurement for SULT2B1b was carried out by a method described in a previous report (NPL 2) with slight modifications.
The reaction solution (50 μl) was composed of 1 to 5 μg of recombinant human SULT2B1b protein, 10 μM [^3H]cholesterol (approximately 4,000 dpm/pmol), 10 mM Tris-HCl (pH 7.5, containing 5 mM MgCl2) containing 0.1 mM 3′-phosphoadenosine 5′-phosphosulfate (PAPS), 0.2 mM 2-hydroxypropyl-β-cyclodextrin, and 5% (v/v) ethanol. Recombinant human SULT2B1b protein was pre-incubated with 1 μl of a test compound (final concentration: 40 or 200 μM) or DMSO (control) at room temperature for 15 minutes, 2 mM PAPS (2.5 μl) was then added to initiate reaction, the resultant was reacted at 37° C. for 15 minutes, and 0.8 ml of ethanol was added to terminate the reaction.
The solution after the reaction was subjected to thin-layer chromatography (TLC) for separation, and then to a liquid scintillation counter to quantify radiolabeled CS.
From the percentage to the amount ([…]) of radiolabeled CS generated through reaction in the absence of the test compound (DMSO) (control), the SULT2B1b activity (% activity) of SULT2B1b protein in the presence of the test compound was evaluated, and the effect of the test compound to inhibit SULT2B1b-mediated CS production (CS production inhibitory effect) was evaluated.
In enzyme assay, SULT assay was performed with use of cholenoic acid as a compound to be tested at different cholesterol and PAPS concentrations (wherein 0.5 to 1 μg of recombinant human SULT2B1b protein was used, the preincubation time and reaction time were each 10 minutes), and the results were fitted to the Michaelis-Menten equation by using Prism 9 (GraphPad Software, Inc.) to perform enzyme kinetic analysis for the inhibition by cholenoic acid.
SULT assay was performed for the compounds as test compounds by the method described in (14) of “II. Experimental procedure” in Experiment Example 1 to evaluate the SULT2B1b inhibitory effects of the compounds.

[3] = read-out: CS production % activity at 10 μM, E0771-SULT cells, 24 hours, test compound 10 μM (Table 1)
[4] = read-out: CS production % activity at 10 μM, E0771-SULT cells, 24 hours, third concentration column of Table 1, head again printed 10 μM
[5] = read-out: CS production % activity at 20 μM, E0771-SULT cells, 24 hours, test compound 20 μM
[6] = test compound 200 μM, relative to DMSO control (100%)

For COC(=O)CC[C@@H](C)[C@H]1CC[C@H]2[C@@H]3CC=C4C[C@@H](O)CC[C@]4(C)[C@H]3CC[C@]12C [Compound 3, methyl (R)-4-((3S,8S,9S,10R,13R,14S,17R)-3-hydroxy-10,13-dimethyl-2,3,4,7,8,9,10,11,12,13,14,15,16,17-tetradecahydro-1H-cyclopenta[a]phenanthren-17-yl)pentanoate], which activity at 10 µM [1, 3] is on record?
The activity at 10 µM was 48.1%.

What about the activity at 10 µM [1, 4] of the same compound?
Its activity at 10 µM is 61.4%.

And the activity at 20 µM [1, 5]?
The activity at 20 µM was 56.8%.

And the IC50 [1]?
The IC50 was 17.3 µM.

What about the activity at 200 µM [2] of the same compound?
The activity at 200 µM was 19%.

What does the source list for CC(=O)OC1CCC2(C)C(=CCC3C2CCC2(C)C(C(C)CCC(=O)O)CCC32)C1 (stereo not drawn) [Compound 17, 3-acetoxy-5-cholenoic acid]?
activity at 10 µM [1, 3]: 43.7%; activity at 10 µM [1, 4]: 44.9%; activity at 20 µM [1, 5]: 52.4%; IC50 [1]: 7 µM; IC50 ([2]; recombinant human SULT2B1b, read-out: IC50 value (enzyme assay)): 186 µM; activity at 200 µM [2, 6]: 66.4%

How did the activity at 10 µM [1, 3] turn out when CO[C@H]1CC[C@@]2(C)C(=CC[C@H]3[C@@H]4CC[C@H]([C@H](C)CCC(=O)O)[C@@]4(C)CC[C@@H]32)C1 [Compound 6, (R)-4-((3S,8S,9S,10R,13R,14S,17R)-3-methoxy-10,13-dimethyl-2,3,4,7,8,9,10,11,12,13,14,15,16,17-tetradecahydro-1H-cyclopenta[a]phenanthren-17-yl)pentanoic acid] was run?
Its activity at 10 µM is 74.5%.

And the activity at 10 µM [1, 4]?
The activity at 10 µM was 80.7%.

What about the activity at 20 µM [1, 5] of the same compound?
The activity at 20 µM was 70.3%.

What about the IC50 [1] of the same compound?
Its IC50 is 32.4 µM.

What about the activity at 200 µM [2, 6] of the same compound?
The activity at 200 µM was 22.9%.

CCCCNC(=O)CC[C@@H](C)[C@H]1CC[C@H]2[C@@H]3CC=C4C[C@@H](OC(=O)C(F)(F)F)CC[C@]4(C)[C@H]3CC[C@]12C [Compound 8, (3S,8S,9S,10R,13R,14S,17R)-17-((R)-5-(butylamino)-5-oxopentan-2-yl)-10,13-dimethyl-2,3,4,7,8,9,10,11,12,13,14,15,16,17-tetradecahydro-1H-cyclopenta[a]phenanthren-3-yl 2,2,2-trifluoroacetate] was tested. Which activity at 10 µM [1, 3] did it give?
Its activity at 10 µM is 70.6%.

And the activity at 10 µM [1, 4]?
Its activity at 10 µM is 83.6%.

And the activity at 20 µM [1, 5]?
The activity at 20 µM was 60.2%.

And the IC50 [1]?
Its IC50 is 42.5 µM.

What about the activity at 200 µM [2, 6] of the same compound?
The activity at 200 µM was 10.7%.

Which results are given for C[C@H](CCC(=O)N1CCOCC1)[C@H]1CC[C@H]2[C@@H]3CC=C4C[C@H](N=[N+]=[N-])CC[C@]4(C)[C@H]3CC[C@]12C [Compound 12, (R)-4-((3R,8S,9S,10R,13R,14S,17R)-3-azido-10,13-dimethyl-2,3,4,7,8,9,10,11,12,13,14,15,16,17-tetradecahydro-1H-cyclopenta[a]phenanthren-17-yl)-1-morpholinopentan-1-one]?
activity at 10 µM [1, 3]: 98.4%; activity at 200 µM [2, 6]: 8.3%

Which activity at 20 µM [1, 5] does the source give for C#CCOCCOCCOCCOCCNC(=O)CC[C@@H](C)[C@H]1CC[C@H]2[C@@H]3CC=C4C[C@@H](OS(=O)(=O)O)CC[C@]4(C)[C@H]3CC[C@]12C [Compound 25, (3S,8S,9S,10R,13R,14S,17R)-10,13-dimethyl-17-((R)-17-oxo-4,7,10,13-tetraoxa-16-azahenicos-1-yn-20-yl)-2,3,4,7,8,9,10,11,12,13,14,15,16,17-tetradecahydro-1H-cyclopenta[a]phenanthren-3-yl sulfate] here?
The activity at 20 µM was 60.1%.

For COC(=O)CC[C@@H](C)[C@H]1CC[C@H]2[C@@H]3CC=C4C[C@@H](OC)CC[C@]4(C)[C@H]3CC[C@]12C [Compound 5, methyl (R)-4-((3S,8S,9S,10R,13R,14S,17R)-3-methoxy-10,13-dimethyl-2,3,4,7,8,9,10,11,12,13,14,15,16,17-tetradecahydro-1H-cyclopenta[a]phenanthren-17-yl)pentanoate], which activity at 20 µM ([1]; E0771-SULT cells, 24 hours, test compound 20 μM, read-out: CS production % activity at 20 μM) is on record?
Its activity at 20 µM is 92.3%.

For C#CCOCCOCCNC(=O)CC[C@@H](C)[C@H]1CC[C@H]2[C@@H]3CC=C4C[C@@H](OS(=O)(=O)O)CC[C@]4(C)[C@H]3CC[C@]12C [Compound 23, (3S,8S,9S,10R,13R,14S,17R)-10,13-dimethyl-17-((R)-5-oxo-5-((2-(2-(prop-2-yn-1-yloxy)ethoxy)ethyl)amino)pentan-2-yl)-2,3,4,7,8,9,10,11,12,13,14,15,16,17-tetradecahydro-1H-cyclopenta[a]phenanthren-3-yl sulfate], which activity at 20 µM [1, 5] is on record?
Its activity at 20 µM is 70.1%.

Which activity at 20 µM [1, 5] does the source give for C[C@H](CCC(=O)N1CCOCC1)[C@H]1CC[C@H]2[C@@H]3CC=C4C[C@@H](O)CC[C@]4(C)[C@H]3CC[C@]12C [Compound 11, (R)-4-((3S,8S,9S,10R,13R,14S,17R)-3-hydroxy-10,13-dimethyl-2,3,4,7,8,9,10,11,12,13,14,15,16,17-tetradecahydro-1H-cyclopenta[a]phenanthren-17-yl)-1-morpholinopentan-1-one] here?
Its activity at 20 µM is 87.4%.
